Assay results: patent EP0338634B1, “Viper venom polypeptides and genetic expression” (Merck & Co., Inc., priority 1988, dated 1989)
Read-outs that look alike come from different tables or passages of the source. Bridge positions count the residues as written; N and C are the ends. Square brackets hold non-standard residues; d marks the D form. Ends that are not written are not given here. Peptide text beside a SMILES is read from it. Met(O) = CS(=O)CC[C@H](N)C(=O)O

Target: human platelet aggregation (Homo sapiens, UniProt P05106+P08514)
Sequence (P08514 32-1039): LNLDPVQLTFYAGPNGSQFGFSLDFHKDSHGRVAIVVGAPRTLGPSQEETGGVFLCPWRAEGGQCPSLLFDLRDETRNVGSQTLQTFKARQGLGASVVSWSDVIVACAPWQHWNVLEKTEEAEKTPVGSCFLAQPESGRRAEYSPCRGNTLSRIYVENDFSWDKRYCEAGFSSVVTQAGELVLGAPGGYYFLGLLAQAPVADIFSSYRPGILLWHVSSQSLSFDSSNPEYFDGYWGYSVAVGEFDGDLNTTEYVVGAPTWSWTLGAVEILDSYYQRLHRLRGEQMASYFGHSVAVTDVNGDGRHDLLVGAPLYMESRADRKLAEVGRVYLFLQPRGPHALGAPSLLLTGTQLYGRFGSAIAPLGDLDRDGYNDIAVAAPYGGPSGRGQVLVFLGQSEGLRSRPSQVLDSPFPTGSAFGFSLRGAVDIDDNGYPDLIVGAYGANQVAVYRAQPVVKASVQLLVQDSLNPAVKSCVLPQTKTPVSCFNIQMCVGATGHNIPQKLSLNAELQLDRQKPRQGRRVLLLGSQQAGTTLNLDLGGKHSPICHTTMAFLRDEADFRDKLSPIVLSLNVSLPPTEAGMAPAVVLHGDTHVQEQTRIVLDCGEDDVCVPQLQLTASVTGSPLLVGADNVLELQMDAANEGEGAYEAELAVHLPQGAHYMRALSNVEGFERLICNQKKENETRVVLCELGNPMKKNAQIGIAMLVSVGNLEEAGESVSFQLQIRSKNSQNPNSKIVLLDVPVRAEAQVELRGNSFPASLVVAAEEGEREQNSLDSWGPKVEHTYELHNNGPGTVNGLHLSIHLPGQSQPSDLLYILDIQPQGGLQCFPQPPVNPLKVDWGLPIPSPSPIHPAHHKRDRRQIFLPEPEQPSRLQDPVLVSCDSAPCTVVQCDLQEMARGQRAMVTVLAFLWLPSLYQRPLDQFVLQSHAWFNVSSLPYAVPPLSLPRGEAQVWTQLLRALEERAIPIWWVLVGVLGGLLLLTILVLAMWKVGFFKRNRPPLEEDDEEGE
Sequence (P05106 27-788): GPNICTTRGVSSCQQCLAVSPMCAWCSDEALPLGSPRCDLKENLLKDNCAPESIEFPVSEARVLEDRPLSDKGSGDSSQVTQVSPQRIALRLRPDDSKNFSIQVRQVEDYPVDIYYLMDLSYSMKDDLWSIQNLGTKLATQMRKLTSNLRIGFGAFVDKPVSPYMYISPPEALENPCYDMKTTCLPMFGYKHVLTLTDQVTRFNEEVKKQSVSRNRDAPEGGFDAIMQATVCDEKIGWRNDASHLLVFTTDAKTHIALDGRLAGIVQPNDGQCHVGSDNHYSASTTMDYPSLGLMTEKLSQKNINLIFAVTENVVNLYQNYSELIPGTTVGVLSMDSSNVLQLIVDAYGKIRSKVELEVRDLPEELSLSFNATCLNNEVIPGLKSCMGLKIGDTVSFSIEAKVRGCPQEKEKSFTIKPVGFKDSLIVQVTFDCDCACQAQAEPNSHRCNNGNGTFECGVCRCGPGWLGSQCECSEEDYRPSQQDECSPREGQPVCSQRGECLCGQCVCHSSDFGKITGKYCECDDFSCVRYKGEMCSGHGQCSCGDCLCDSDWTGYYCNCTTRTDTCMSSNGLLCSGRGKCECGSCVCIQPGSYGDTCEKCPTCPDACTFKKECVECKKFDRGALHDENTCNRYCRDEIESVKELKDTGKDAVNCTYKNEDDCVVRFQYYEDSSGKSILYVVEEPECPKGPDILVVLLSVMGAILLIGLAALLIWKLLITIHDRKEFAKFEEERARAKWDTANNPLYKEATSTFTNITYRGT
Assay: Platelet aggregation assay for synthetic echistatin and analogs (chronolog aggregometer)
Type: cell-based
Details: read-out: IC₅₀(µM)(95% CONFIDENCE LIMITS)
Description: Platelet aggregation was measured at 37°C in a chronolog aggregometer. The reaction mixture contained washed platelets (2 x 10⁸/ml), fibrinogen ([…]), Ca²⁺ (1 mM), and the platelet aggregation inhibitor fraction to be tested The aggregation was initiated by adding […] ADP 1 min after the other components had been added. The reaction was allowed to proceed for at least 2 min. The extent of inhibition of aggregation was expressed as the percentage of the rate of aggregation observed in the absence of inhibitor. […]
The concentration of peptide necessary to inhibit the rate of human platelet aggregation by 50% (IC₅₀) was determined using platelets from 2-4 donors. Determinations were performed in duplicate for each donor.

[1] = human platelet aggregation, Table 5

| Compound | IC50 [1] [µM] | IC50 (rate of human platelet aggregation, platelets from 2-4 donors, duplicate, Table 4) [µM] |
| --- | --- | --- |
| CC[C@H](C)[C@@H]1NC(=O)[C@H]([C@@H](C)O)NC(=O)CNC(=O)[C@H](CCC(=O)O)NC(=O)[C@H](CCCCN)NC(=O)[C@H](CC(C)C)NC(=O)[C@H](Cc2ccccc2)NC(=O)[C@H](CCCCN)NC(=O)[C@@H]2CSSC[C@H](NC(=O)[C@@H](N)CCC(=O)O)C(=O)N[C@@H](CCC(=O)O)C(=O)N[C@@H](CO)C(=O)NCC(=O)N3CCC[C@H]3C(=O)N[C@H]3CSSC[C@@H]4NC(=O)[C@H](Cc5ccc(O)cc5)NC(=O)[C@H](CC(=O)O)NC(=O)[C@H](CC(=O)O)NC(=O)[C@H](CC(C)C)NC(=O)[C@H](CC(=O)O)NC(=O)[C@H](CC(=O)O)NC(=O)CNC(=O)[C@H](CCCNC(=N)N)NC(=O)[C@H](C)NC(=O)[C@H](CCCNC(=N)N)NC(=O)[C@H](CCCCN)NC(=O)[C@H](CSSC[C@@H](C(=O)N5CCC[C@H]5C(=O)N[C@@H](CCCNC(=N)N)C(=O)N[C@@H](CC(N)=O)C(=O)N5CCC[C@H]5C(=O)N[C@@H](Cc5c[nH]cn5)C(=O)N[C@@H](CCCCN)C(=O)NCC(=O)N5CCC[C@H]5C(=O)N[C@@H](C)C(=O)N[C@H](C(=O)O)[C@@H](C)O)NC(=O)[C@H](CC(=O)O)NC(=O)[C@H](CSSC[C@H](NC3=O)C(=O)N[C@@H](CCCNC(=N)N)C(=O)N[C@@H](CC(N)=O)C(=O)N2)NC(=O)[C@H]([C@@H](C)O)NC(=O)[C@H](CCCCN)NC(=O)CNC(=O)[C@H](CC(N)=O)NC4=O)NC1=O [Example 13, leu 28-echistatin] | 0.034 | – |
| CC[C@H](C)[C@@H]1NC(=O)[C@H]([C@@H](C)O)NC(=O)CNC(=O)[C@H](CCC(=O)O)NC(=O)[C@H](CCCCN)NC(=O)[C@H](CC(C)C)NC(=O)[C@H](Cc2ccccc2)NC(=O)[C@H](CCCCN)NC(=O)[C@@H]2CSSC[C@H](NC(=O)[C@@H](N)CCC(=O)O)C(=O)N[C@@H](CCC(=O)O)C(=O)N[C@@H](CO)C(=O)NCC(=O)N3CCC[C@H]3C(=O)N[C@H]3CSSC[C@@H]4NC(=O)[C@H](Cc5ccc(O)cc5)NC(=O)[C@H](CC(=O)O)NC(=O)[C@H](CC(=O)O)NC(=O)[C@H](CCSC)NC(=O)[C@H](CC(=O)O)NC(=O)[C@H](CC(=O)O)NC(=O)CNC(=O)[C@H](CCCNC(=N)N)NC(=O)[C@H](C)NC(=O)[C@H](CCCNC(=N)N)NC(=O)[C@H](CCCCN)NC(=O)[C@H](CSSC[C@@H](C(N)=O)NC(=O)[C@H](CC(=O)O)NC(=O)[C@H](CSSC[C@H](NC3=O)C(=O)N[C@@H](CCCNC(=N)N)C(=O)N[C@@H](CC(N)=O)C(=O)N2)NC(=O)[C@H]([C@@H](C)O)NC(=O)[C@H](CCCCN)NC(=O)CNC(=O)[C@H](CC(N)=O)NC4=O)NC1=O [Example 19, (1-39)-echistatin amide] (H-ECESGPCCRNCKFLKEGTICKRARGDDMDDYCNGKTCDC-NH2; disulfide 2-11, 7-32, 8-37, 20-39) | 0.327 | – |
| CC[C@H](C)[C@@H]1NC(=O)[C@H]([C@@H](C)O)NC(=O)CNC(=O)[C@H](CCC(=O)O)NC(=O)[C@H](CCCCN)NC(=O)[C@H](CC(C)C)NC(=O)[C@H](Cc2ccccc2)NC(=O)[C@H](CCCCN)NC(=O)[C@@H]2CSSC[C@H](NC(=O)[C@@H](N)CCC(=O)O)C(=O)N[C@@H](CCC(=O)O)C(=O)N[C@@H](CO)C(=O)NCC(=O)N3CCC[C@H]3C(=O)N[C@H]3CSSC[C@@H]4NC(=O)[C@H](Cc5ccc(O)cc5)NC(=O)[C@H](CC(=O)O)NC(=O)[C@H](CC(=O)O)NC(=O)[C@H](CCSC)NC(=O)[C@H](CC(=O)O)NC(=O)[C@H](CC(=O)O)NC(=O)CNC(=O)[C@H](CCCNC(=N)N)NC(=O)[C@H](C)NC(=O)[C@H](CCCNC(=N)N)NC(=O)[C@H](CCCCN)NC(=O)[C@H](CSSC[C@@H](C(=O)O)NC(=O)[C@H](CC(=O)O)NC(=O)[C@H](CSSC[C@H](NC3=O)C(=O)N[C@@H](CCCNC(=N)N)C(=O)N[C@@H](CC(N)=O)C(=O)N2)NC(=O)[C@H]([C@@H](C)O)NC(=O)[C@H](CCCCN)NC(=O)CNC(=O)[C@H](CC(N)=O)NC4=O)NC1=O [Example 20, (1-39)-echistatin] (H-ECESGPCCRNCKFLKEGTICKRARGDDMDDYCNGKTCDC-OH; disulfide 2-11, 7-32, 8-37, 20-39) | 0.8 | – |
| ECESGPCCRNCKFLKEGTICKRARGDD[Met(O)]DDYCNGKTCDCPRNPHKGPAT (disulfide 2-11, 7-32, 8-37, 20-39) [Example 18, met SO 28-echistatin] | 0.088 | – |
| H-ECESGPCCRNCKFLKEGTICKNARGDFLDDYCNGKTCDCPRNPHKGPAT-OH (disulfide 2-11, 7-32, 8-37, 20-39) [Example 15, asn 22, phe 27, leu 28-echistatin] | 0.038 | – |
| H-ECESGPCCRNCKFLKEGTICKRARGDDFDDYCNGKTCDCPRNPHKGPAT-OH (disulfide 2-11, 7-32, 8-37, 20-39) [Example 14, phe 28-echistatin] | 0.038 | – |
| H-ECESGPCCRNCKFLKEGTICKRARGDDMDDYCNGKTCDCPR-NH2 (disulfide 2-11, 7-32, 8-37, 20-39) [Example 16, (1-41)-echistatin amide] | 0.066 | – |
| H-ECESGPCCRNCKFLKEGTICKRARGDDMDDYCNGKTCDCPRNP-NH2 (disulfide 2-11, 7-32, 8-37, 20-39) [Example 17, (1-43)-echistatin amide] | 0.081 | – |
| H-ECESGPCCRNCKFLKEGTICKRARGDDMDDYCNGKTCDCPRNPHKGPAT-OH (disulfide 2-11, 7-32, 8-37, 20-39) [Synthetic Echistatin, echistatin] | – | 0.033 |
| H-ECESGPCCRNCKFLKEGTICKRARGDFLDDYCNGKTCDCPRNPHKGPAT-OH (disulfide 2-11, 7-32, 8-37, 20-39) [Example 10, phe 27, leu 28-echistatin] | 0.016 | – |
| H-ECESGPCCRNCKFLKEGTICKRARGDFMDDYCNGKTCDCPRNPHKGPAT-OH (disulfide 2-11, 7-32, 8-37, 20-39) [Example 9, phe 27-echistatin] | 0.013 | – |
| H-ECESGPCCRNCKFLKEGTICKRARGDWMDDYCNGKTCDCPRNPHKGPAT-OH (disulfide 2-11, 7-32, 8-37, 20-39) [Example 11, trp 27-echistatin] | 0.017 | – |
| H-ECESGPCCRNCKFLKEGTICKRPRGDFLDDYCNGKTCDCPRNPHKGPAT-OH (disulfide 2-11, 7-32, 8-37, 20-39) [Example 12, pro 23, phe 27, leu 28-echistatin] | 0.026 | – |
